Source: publication PMC11597817, “Modulation of Multispecific Transporters by Uncaria tomentosa Extract and Its Major Phytoconstituents” (Pharmaceutics, 2024)
Read-outs that look alike come from different tables or passages of the source.

Biological target: T1, OCT1 (Homo sapiens, UniProt O15245)
T1 construct: expressed in transfected cells; host or cells: HEK293 (lentiviral transduction; cDNA synthesised by GenScript)
T1 sequence (O15245 1-554): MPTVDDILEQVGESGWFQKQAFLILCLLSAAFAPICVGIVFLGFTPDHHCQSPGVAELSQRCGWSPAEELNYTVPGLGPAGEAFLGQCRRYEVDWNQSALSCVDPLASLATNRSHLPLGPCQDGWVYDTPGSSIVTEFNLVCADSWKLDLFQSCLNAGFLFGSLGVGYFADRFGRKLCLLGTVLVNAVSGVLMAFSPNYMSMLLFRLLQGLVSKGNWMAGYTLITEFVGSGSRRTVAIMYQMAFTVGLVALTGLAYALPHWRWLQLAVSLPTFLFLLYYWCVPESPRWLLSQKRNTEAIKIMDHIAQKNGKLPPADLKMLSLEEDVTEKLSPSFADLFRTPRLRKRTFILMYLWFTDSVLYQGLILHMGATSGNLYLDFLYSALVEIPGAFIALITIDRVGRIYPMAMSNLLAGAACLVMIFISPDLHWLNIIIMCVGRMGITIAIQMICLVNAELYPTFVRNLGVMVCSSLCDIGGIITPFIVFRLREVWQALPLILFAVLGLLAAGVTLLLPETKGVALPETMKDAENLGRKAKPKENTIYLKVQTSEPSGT
Test: Uptake inhibition assay, OCT1-overexpressing HEK293 cells
Assay type: cell-based
Details: oxindole alkaloids, substrate metformin, read-out: IC50 (95% CI of IC50)
Description: The human embryonic kidney 293 (HEK293) cell line was purchased from Invitrogen/ThermoFisher (Waltham, MA, USA). Madin–Darby canine kidney II (MDCKII) wild type cells were obtained from the European Collection of Authenticated Cell Cultures (ECACC catalog no. 00062107). HEK293 cells overexpressing the human uptake OATP1B1 (NCBI Reference Sequence: NM_006446.4), OATP1B3 (NM_019844), OATP2B1 (NM_007256), OATP1A2 (NM_134431), OAT1-3 (BC033682.1; NM_006672.3; BC022387), OCT1-3 (BC126364.1; NM_003058; NM_021977), OCTN1 (NM_003059.3), NTCP (NM_003049.3), MATE1 (NM_018242.3), MATE2K (NM_001099646.2), ENT4 (NM_001040661.1), SGLT2 (AJ133127.1), ASCT1/2 (NM_003038.5; NM_005628.3), LAT1/2 (NM_003486.6; NM_012244.4), and THTR1/2 (NM_006996; NM_025243) and mock and human efflux BCRP (NM_004827.2), BSEP (NM_003742.2), MDR1 (NM_000927.4), and MRP1-5 (NM_004996; NM_000392.4; BC137347.1; NM_005845.4; NM_005688.2) transporters as well as MDCKII overexpressing human ENT1/2 (NM_001078177; NM_001532.2) and URAT1 (BC053348) transporters were created by lentiviral transduction. The cDNA encoding respective transporters were synthetized and cloned by GenScript (Piscataway, NJ, USA). The production of lentivirus supernatants, the transduction of the cells, cloning, functional characterization, and validation were performed by Charles River Laboratories Hungary Kft. (Budapest, Hungary).
Cell cultures were maintained in Dulbecco’s modified Eagle’s medium (DMEM), 4.5 g/L of glucose, supplemented with GlutaMAX^TM, 2.5 v/v % penicillin/streptomycin, and 10% fetal bovine serum (FBS) at 37 °C, 5% CO2, and 90% relative humidity. The medium was replaced two or three times per week; cells were harvested using TrypLE™ Express (ThermoFisher) at 80 to 90% confluence and passaged or seeded. HEK293 cells of passage < 12 (from thawing) and MDCKII cells of passage < 18 were seeded at a density of 1 × 10^5 cells/well onto poly-D-lysine-coated or -non-coated 96-well plates and incubated for 18–22 h prior to inhibition assays.
Plated cells were preincubated with a transport buffer (HBSS) containing 30 or 150 µg/mL of UT extract or 100 µM of isopteropodine, mitraphylline, or uncarine D for 15 min at an appropriate temperature. […] For radiolabeled substrates, accumulation was measured by liquid scintillation counting (MicroBeta Scintillation Counter, PerkinElmer).
The transporter-mediated uptake and ATP-dependent transport were determined by subtracting the activity of the control cell/transporter abundant-membrane in the presence of AMP from the activity of the transporter-overexpressing cell/transporter-abundant membrane in the presence of ATP. The relative transporter-specific accumulation was expressed as the percent of DMSO activity. […] Confidence intervals (CIs) of 95% were also determined. […]

COC(=O)C1=CO[C@@H](C)[C@H]2CN3CC[C@]4(C(=O)Nc5ccccc54)[C@@H]3C[C@H]12 [mitraphylline]
IC50 (listed as Mitraphylline): 7.05 µM
IC50: 7.1 µM

COC(=O)C1=CO[C@@H](C)[C@@H]2CN3CC[C@@]4(C(=O)Nc5ccccc54)[C@@H]3C[C@H]12 [isopteropodine]
IC50 (listed as Isopteropodine): 2.81 µM
IC50: 2.8 µM
